# Source: patent US20150148256A1, “BIOLUMINESCENCE IMAGING-BASED SCREENING ASSAY AND INHIBITORS OF ABCG2” (THE JOHNS HOPKINS UNIVERSITY, priority 2008, published 2015)
# Where a name gives a salt, the structure may show the parent alone. Read-outs that look alike come from different tables or passages of the source.
# Key:
# [1] = target: T1, ABCG2 (Homo sapiens, UniProt Q9UNQ0); assay: BODIPY-prazosin uptake assay (flow cytometry) in HEK293/ABCG2 cells; conditions: compound 20 μM; for BP (BODIPY-prazosin dye uptake assay): 1 h; for BODIPY-prazosin assay result: flow cytometry
# T1 sequence (Q9UNQ0 1-655): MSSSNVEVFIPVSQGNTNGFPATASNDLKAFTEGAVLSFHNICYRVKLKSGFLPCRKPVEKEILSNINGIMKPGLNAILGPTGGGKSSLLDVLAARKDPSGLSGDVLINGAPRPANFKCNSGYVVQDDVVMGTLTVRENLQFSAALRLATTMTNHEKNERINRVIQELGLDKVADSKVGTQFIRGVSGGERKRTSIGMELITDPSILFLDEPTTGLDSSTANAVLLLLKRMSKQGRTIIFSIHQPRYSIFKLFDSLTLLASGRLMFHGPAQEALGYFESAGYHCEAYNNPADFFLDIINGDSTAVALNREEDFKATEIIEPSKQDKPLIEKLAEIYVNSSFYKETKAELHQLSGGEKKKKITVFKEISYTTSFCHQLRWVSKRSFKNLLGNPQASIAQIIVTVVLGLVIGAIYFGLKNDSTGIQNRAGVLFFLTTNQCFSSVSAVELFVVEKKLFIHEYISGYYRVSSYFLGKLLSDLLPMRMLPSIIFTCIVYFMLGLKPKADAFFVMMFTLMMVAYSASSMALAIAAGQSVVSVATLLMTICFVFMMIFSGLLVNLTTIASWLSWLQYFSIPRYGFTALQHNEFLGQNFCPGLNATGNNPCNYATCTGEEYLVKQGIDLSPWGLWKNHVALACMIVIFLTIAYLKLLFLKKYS
# [2] = test system: ABCG2-overexpressing NCI-H460/MX20 cells
# [3] = target: T1, ABCG2; assay: Bioluminescence imaging (BLI) assay in HEK293/ABCG2/fLuc cells
# Outline: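 Light output from HEK293/ABCG2/fLuc cells plated at 4×10^4 per well, treated with compounds, imaged every 5 min for ~1 h. Values are signal-to-background ratios versus solvent control at 40 min, indicating ABCG2 inhibition. Dose range 0.001 μM-100 μM with 50 μg/mL D-luciferin for selected compounds.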
# [4] = test system: NCI-H460 parent line; assay: MTX survival of parent NCI-H460 cells (XTT); type: cell-based, human; conditions: three days
# [5] = target: T1, ABCG2; conditions: 1 h, 20 μM
# [6] = target: T2, MRP1 (Multiple Drug Resistance Protein 1) (Homo sapiens, UniProt P33527); assay: Colchicine resensitization assay in MDCKII cells overexpressing MRP1; type: cell-based; conditions: for MRP1 inhibition: even at relatively high concentration (30 μM)
# T2 construct: expressed in transfected cells; host or cells: MDCKII
# Procedure: The ABC transporter-inhibiting ability of the potential inhibitors identified were further tested by evaluating their ability to resensitize ABCG2-overexpressing NCI-H460/MX20 cells to MTX, or MDCKII cells overexpressing Pgp or MRP1, to Col. Cells were plated in 96-well plates at 1×10^4 per well and allowed to attach. […] Colchicine was added at 1 μM for MDCKII/Pgp cells and 0.3 μM for MDCKII/MRP1 cells. […] In brief, 1 mg/ml XTT (Polysciences, Warrington, Pa.) was mixed with 0.025 mM PMS (Sigma), and 50 μl of the mixture was added to each well and incubated for 4 hours at 37° C. After the plates were mixed on a plate shaker, absorbance at 450 nm was measured. All results were normalized to a percentage of absorbance obtained in controls.
# MDCKII cells overexpressing Pgp or MRP1 were incubated for two days in medium containing 1 μM (for Pgp) or 0.3 μM (for MRP1) Col and increasing concentrations of each ABCG2 inhibitor.
# [7] = target: T1, ABCG2; parameters: expressed in transfected cells; host or cells: HEK293; conditions: read-out: IC50, ability to inhibit ATPase, cited from earlier work
# [8] = target: T1, ABCG2; parameters: expressed in transfected cells; host or cells: HEK293; conditions: reference (23); read-out: IC50, pheophorbide A fluorescent dye uptake assay; cited from earlier work
# [9] = target: T1, ABCG2; parameters: expressed in transfected cells; host or cells: HEK293; conditions: cited from earlier work
# [10] = compound 1 μM with 15 μM MTX, two days
# [11] = compound 20 μM, H460/MX20 cells
# [12] = Table 2, HEK293/ABCG2/fLuc cells, compound approximately 17 μM, ~50 μg/mL D-luciferin, 40 min time point
# [13] = Table 4, approximately 17 μM, 40 min time point
# T2 sequence (P33527 whole entry): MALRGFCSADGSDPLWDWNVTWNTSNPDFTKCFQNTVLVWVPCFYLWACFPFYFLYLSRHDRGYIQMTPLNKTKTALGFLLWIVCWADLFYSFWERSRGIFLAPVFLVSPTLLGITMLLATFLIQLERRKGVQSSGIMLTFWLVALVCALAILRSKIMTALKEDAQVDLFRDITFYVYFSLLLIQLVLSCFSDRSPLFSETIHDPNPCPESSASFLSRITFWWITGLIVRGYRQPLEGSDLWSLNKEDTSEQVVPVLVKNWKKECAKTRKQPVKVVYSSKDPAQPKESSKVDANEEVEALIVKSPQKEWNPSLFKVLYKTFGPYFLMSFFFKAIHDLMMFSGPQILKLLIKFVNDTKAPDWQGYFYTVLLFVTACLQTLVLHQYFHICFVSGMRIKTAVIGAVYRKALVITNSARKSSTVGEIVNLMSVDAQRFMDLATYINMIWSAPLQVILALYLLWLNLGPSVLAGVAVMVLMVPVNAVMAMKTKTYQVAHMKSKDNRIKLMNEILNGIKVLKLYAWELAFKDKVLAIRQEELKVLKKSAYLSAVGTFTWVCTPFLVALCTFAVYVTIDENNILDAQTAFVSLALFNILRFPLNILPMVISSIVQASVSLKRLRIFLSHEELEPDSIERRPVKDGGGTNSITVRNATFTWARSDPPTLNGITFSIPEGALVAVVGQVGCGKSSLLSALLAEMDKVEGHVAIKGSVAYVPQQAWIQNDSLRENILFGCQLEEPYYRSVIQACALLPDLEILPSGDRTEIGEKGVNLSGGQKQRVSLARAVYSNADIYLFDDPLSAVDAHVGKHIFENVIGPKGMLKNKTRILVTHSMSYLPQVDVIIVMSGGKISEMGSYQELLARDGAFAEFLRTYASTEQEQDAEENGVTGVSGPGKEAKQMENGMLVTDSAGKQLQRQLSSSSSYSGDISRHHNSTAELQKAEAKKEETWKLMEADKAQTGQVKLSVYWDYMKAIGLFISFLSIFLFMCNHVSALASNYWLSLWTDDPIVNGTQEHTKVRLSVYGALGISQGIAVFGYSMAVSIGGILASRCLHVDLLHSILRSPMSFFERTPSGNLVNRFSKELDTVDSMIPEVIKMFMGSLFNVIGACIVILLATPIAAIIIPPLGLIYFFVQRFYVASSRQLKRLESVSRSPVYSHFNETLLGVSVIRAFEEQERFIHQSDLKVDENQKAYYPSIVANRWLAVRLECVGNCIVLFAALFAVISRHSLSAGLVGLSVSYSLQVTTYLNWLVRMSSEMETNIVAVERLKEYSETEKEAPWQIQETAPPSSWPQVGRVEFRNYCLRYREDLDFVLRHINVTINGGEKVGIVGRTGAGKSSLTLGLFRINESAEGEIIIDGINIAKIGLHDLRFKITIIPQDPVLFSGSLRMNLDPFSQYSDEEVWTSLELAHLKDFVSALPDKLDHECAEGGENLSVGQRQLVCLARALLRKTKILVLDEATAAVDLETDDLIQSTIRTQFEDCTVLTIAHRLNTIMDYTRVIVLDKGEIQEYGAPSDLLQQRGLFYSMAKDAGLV
compound,measurement,setting,value
C=C(C)[C@H]1Cc2c(ccc3c2O[C@@H]2COc4cc(OC)c(OC)cc4[C@@H]2C3=O)O1 [rotenone],BP (BODIPY-prazosin dye uptake assay),[1],Y
same,BODIPY-prazosin assay result,[1],positive
same,MTX (mitoxantrone resensitization assay),[2],Y
same,"Fold (BLI enhancement), previously unknown compounds",[3]; human,6.7 fold
same,"Fold (BLI enhancement, S/B ratio over control)",[3]; human,6.7 fold
verteporfin,BP (BODIPY-prazosin dye uptake assay),[1],N
same,BODIPY-prazosin assay result,[1],negative
same,MTX (mitoxantrone resensitization assay),[2]; H460/MX20 cells with MTX,Y
same,resensitization of H460/MX20 cells to MTX,[2]; [10],showed resensitization of H460/MX20 cells to MTX
same,cytotoxicity in the MTX resensitization assay,[2]; [11],too cytotoxic to be tested
same,cytotoxicity in the MTX resensitization assay,"[2]; compound 20 μM, H460/MX20 cells, listed as Verteporfin",too cytotoxic to validate by MTX assay
same,"Fold (BLI enhancement, S/B ratio over control)",[3]; [12],11.3 fold
same,"Fold (BLI enhancement), previously unknown compounds",[3]; [13],11.3 fold
C[C@H]1O[C@@H](O[C@H]2[C@@H](O)C[C@H](O[C@H]3[C@@H](O)C[C@H](O[C@H]4CC[C@@]5(C)[C@H](CC[C@@H]6[C@@H]5CC[C@]5(C)[C@@H](C7=CC(=O)OC7)CC[C@]65O)C4)O[C@@H]3C)O[C@@H]2C)C[C@H](O)[C@@H]1O [digitoxin],reduction of survival rate of H460/MX20 cells,[2],did not reduce the survival rate of H460/MX20 cells significantly
same,BLI signal enhancement at lower concentrations,[3],enhance BLI signal minimally
same,"Fold (BLI enhancement), previously unknown compounds",[3]; human,5.7 fold
same,"Fold (BLI enhancement, S/B ratio over control)",[3]; human,5.7 fold
"O=C1c2c(O)ccc(O)c2C(=O)c2c(NCCNCCO)ccc(NCCNCCO)c21 [MTX, mitoxantrone]",survival of parent cells,[4]; 15 μM MTX alone,< 20%
same,survival of parent cells,[4]; 30 μM MTX alone,~9%
same,survival of H460/MX20 cells,"[2]; 15 μM MTX alone, three days",80%
same,survival of H460/MX20 cells,"[2]; 30 μM MTX alone, three days",~40%
CCCCNc1c(C(=O)OCC)c(C)nc2c1cnn2CC [tracazolate],MTX (mitoxantrone resensitization assay),[2]; H460/MX20 cells with MTX,Y
same,"Fold (BLI enhancement), previously unknown compounds","[3]; human, 40 min, 17 μM",20 fold
same,"Fold (BLI enhancement, S/B ratio over control)","[3]; human, 40 min, 17 μM",20.0 fold
O=C(c1ccc(OCCN2CCCCC2)cc1)c1c(-c2ccc(O)cc2)sc2cc(O)ccc12 [raloxifene hydrochloride],MTX (mitoxantrone resensitization assay),[2]; H460/MX20 cells with MTX,Y
same,"Fold (BLI enhancement), previously unknown compounds","[3]; human, 40 min, 17 μM",5.4 fold
same,"Fold (BLI enhancement, S/B ratio over control)","[3]; human, 40 min, 17 μM",5.4 fold
CC(=O)c1ccc2c(c1)N(CCCN(C)C)c1ccccc1S2 [acepromazine],MTX (mitoxantrone resensitization assay),[2]; H460/MX20 cells with MTX,Y
same,"Fold (BLI enhancement), previously unknown compounds","[3]; human, 40 min, 17 μM",6.2 fold
same,"Fold (BLI enhancement, S/B ratio over control)","[3]; human, 40 min, 17 μM",6.2 fold
CCN(CC)CCCC(C)Nc1c2ccc(Cl)cc2nc2ccc(OC)cc12 (centres unmarked) [quinacrine],BODIPY-prazosin assay result,[5],confirmed as an ABCG2 inhibitor
same,cytotoxicity in the MTX resensitization assay,[2],too cytotoxic to be tested
same,"Fold (BLI enhancement), previously unknown compounds","[3]; human, 40 min, 17 μM",10.6 fold
same,"Fold (BLI enhancement, S/B ratio over control)","[3]; human, 40 min, 17 μM",10.6 fold
gramicidin,resensitization of H460/MX20 cells to MTX,[2]; [10],showed resensitization of H460/MX20 cells to MTX
same,cytotoxicity in the MTX resensitization assay,[2]; [11],too cytotoxic to be tested
same,"Fold (BLI enhancement, S/B ratio over control)",[3]; [12],6.9 fold
same,"Fold (BLI enhancement), previously unknown compounds",[3]; [13],6.9 fold
CCN(CC)CCOc1ccc(C(=C(Cl)c2ccccc2)c2ccccc2)cc1 [clomiphene citrate],resensitization of H460/MX20 cells to MTX,[2]; [10],showed resensitization of H460/MX20 cells to MTX
same,"Fold (BLI enhancement), previously unknown compounds","[3]; human, 40 min, 17 μM",6.7 fold
same,"Fold (BLI enhancement, S/B ratio over control)","[3]; human, 40 min, 17 μM",6.7 fold
Cc1cc2nc3c(=O)[nH]c(=O)nc-3n(C[C@H](O)[C@H](O)[C@H](O)CO)c2cc1C [riboflavin],MTX (mitoxantrone resensitization assay),[2]; H460/MX20 cells with MTX,Y
same,"Fold (BLI enhancement), known compounds","[3]; human, 40 min, 17 μM",5.4 fold
same,"Fold (BLI enhancement, S/B ratio over control)","[3]; human, 40 min, 17 μM",5.4 fold
COc1cc(N)c(Cl)cc1C(=O)NC1CCN(Cc2ccccc2)CC1 [clebopride maleate],MRP1 inhibition,[6],weak
same,MTX (mitoxantrone resensitization assay),[2]; H460/MX20 cells with MTX,Y
same,IC50,[3],8200 nM
same,"Fold (BLI enhancement), previously unknown compounds","[3]; human, 40 min, 17 μM",7.9 fold
same,"Fold (BLI enhancement, S/B ratio over control)","[3]; human, 40 min, 17 μM",7.9 fold
O=C(OCC(O)CO)c1ccccc1Nc1ccnc2cc(Cl)ccc12 (centres unmarked) [glafenine],concentration from which MDCKII/MRP1 cells are resensitized to Col,"[6]; 0.3 μM Col, two days",10 µM
same,MTX (mitoxantrone resensitization assay),[2],Y
same,concentration that effectively resensitizes H460/MX20 cells to MTX,[2],≤ 0.001 µM
same,relative potency in dose-dependent MTX resensitization,[2],"more potent ABCG2 inhibitor than FTC, doxazosin mesylate, clebopride maleate, and flavoxate hydrochloride"
same,survival of H460/MX20 cells,[2],13%
same,IC50,[3],3200 nM
same,BLI signal enhancement,"[3]; human, 40 min, 17 μM",~20 fold
same,"Fold (BLI enhancement), previously unknown compounds","[3]; human, 40 min, 17 μM",20.6 fold
same,"Fold (BLI enhancement, S/B ratio over control)","[3]; human, 40 min, 17 μM",20.6 fold
"COc1ccc2c3c([nH]c2c1)[C@H](C=C(C)C)N1C(=O)[C@@H]2CCCN2C(=O)[C@@H]1C3 [FTC, Fumitremorgin C]",IC50,[7]; Ozvegy et al. (21),1300 nM
same,IC50,[7]; Ozvegy et al. (22),400 nM
same,IC50,[7]; Robey et al. (13),1000 nM
same,IC50,[8],800 nM
same,resensitization of H460/MX20 cells to MTX,"[2]; FTC positive control (10 μM), MTX 15 or 30 μM, three days",restored the sensitivity of H460/MX20 cells to MTX and significantly reduced their survival rate
same,IC50,"[3]; read-out: IC50 as an ABCG2 inhibitor (BLI), same assay, using the 30 min data",6600 nM
same,IC50,"[9]; literature, read-out: IC50 values reported in literature",300 to 1300 nM
same,concentration at which the plateau of the ABCG2-inhibiting effect is reached,[9]; previous reports,10 µM
Cc1c(-c2ccccc2)oc2c(C(=O)OCCN3CCCCC3)cccc2c1=O [flavoxate hydrochloride],MRP1 inhibition,[6],weak
same,MTX (mitoxantrone resensitization assay),[2]; H460/MX20 cells with MTX,Y
same,IC50,[3],20000 nM
same,"Fold (BLI enhancement), previously unknown compounds","[3]; human, 40 min, 17 μM",11.2 fold
same,"Fold (BLI enhancement, S/B ratio over control)","[3]; human, 40 min, 17 μM",11.2 fold
